For series [1] the following is noted: 37% formaldehyde; cited from earlier work.
The target of series [2] is T1, influenza hemagglutinin protein (Influenza A virus, UniProt P03452).
T1 construct: host or cells: human cells
Kind of series: LCMS/MS of hemagglutinin protein reacted with EGCG. To be noted: EGCG modified in the form of dihydro epigallocatechin (C15H11O6). The method, then:
In addition, the hemagglutinin protein reacted with EGCG was analyzed through liquid chromatography mass spectrometry (LCMS/MS). The protein bands stained with Coomassie blue were separated by in-gel digestion, subjected to alkylation and de-staining processes, and then prepared into peptide fragments using trypsin. The prepared peptide fragments were analyzed using LCMS/MS [(Q-Exactive mass spectrometer (Thermo Fisher Scientific, Bremen, Germany) coupled with an Easy-nLC system (Thermo Fisher Scientific, Odense, Denmark)].

T1 sequence (P03452 18-565): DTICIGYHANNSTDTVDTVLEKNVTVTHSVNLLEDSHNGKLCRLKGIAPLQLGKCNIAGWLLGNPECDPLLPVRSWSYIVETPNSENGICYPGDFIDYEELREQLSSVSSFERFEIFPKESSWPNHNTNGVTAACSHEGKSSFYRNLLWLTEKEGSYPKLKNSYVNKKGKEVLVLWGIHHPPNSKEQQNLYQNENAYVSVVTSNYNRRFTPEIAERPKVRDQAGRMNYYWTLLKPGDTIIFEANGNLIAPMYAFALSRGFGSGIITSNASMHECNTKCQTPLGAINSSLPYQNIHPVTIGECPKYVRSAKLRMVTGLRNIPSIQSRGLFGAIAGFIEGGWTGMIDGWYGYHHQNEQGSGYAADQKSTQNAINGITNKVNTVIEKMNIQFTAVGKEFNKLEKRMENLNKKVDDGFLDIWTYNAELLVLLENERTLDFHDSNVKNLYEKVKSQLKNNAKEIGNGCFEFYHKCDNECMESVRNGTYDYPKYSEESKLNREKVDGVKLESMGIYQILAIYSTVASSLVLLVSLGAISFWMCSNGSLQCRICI

Regarding `C=O` [formaldehyde], the “amount that can lead to death in adults” value in series [1] was 30 mL.

Turning to (−)-epigallocatechin gallate [EGCG], the “binding site of EGCG on hemagglutinin (LCMS/MS)” value in series [2] is recorded as “bound to the cysteine residue, which is the 152nd amino acid of the influenza hemagglutinin protein”.

Source of the values: patent publication US20180177860A1, “VACCINE […] I[…] GREEN TEA EXTRACT, AND PREPARATION METHOD THEREFOR” (priority 2015, published 2018).
